Reference: patent US11826351B2, “Compounds useful as kinase inhibitors” (Loxo Oncology, Inc., priority 2015, dated 2023)

Assays:
Recombinant EGFR = target: T1, Recombinant EGFR (Homo sapiens, UniProt P00533); test: EGFR binding affinity (LanthaScreen TR-FRET); conditions: Kinase Tracer 199, 5 h incubation
T1 construct: purchased Invitrogen
Method in brief: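 Compounds were titrated against recombinant EGFR and binding was followed by LanthaScreen time-resolved FRET.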

[1] = target: T2, Recombinant BTK^C481S kinase (Homo sapiens, UniProt Q06187, C481S); test: BTK C481S binding affinity (LanthaScreen TR-FRET); conditions: Kinase Tracer 236, 5 h incubation
T2 construct: purchased SignalChem
Method in brief: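 BTK C481S tracer-displacement TR-FRET: 5 nM His-tagged kinase, 2 nM Eu anti-His antibody and 30 nM Kinase Tracer 236 incubated with titrated inhibitor for 5 h in Kinase Buffer A. Read at 340 nm excitation, 615/665 nm emission; IC50 from variable-slope log[inhibitor]–response fit.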

[2] = target: T3, Recombinant BTK^WT kinase (Homo sapiens, UniProt Q06187); test: BTK WT binding affinity (LanthaScreen TR-FRET); conditions: Kinase Tracer 236, 5 h incubation
T3 construct: purchased Invitrogen
Method in brief: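 IC50 obtained by variable-slope fit of TR-FRET signal (ex 340 nm; em 615 and 665 nm) versus inhibitor concentration. Reaction held for 5 h in LanthaScreen Kinase Buffer A with 2.5 nM His-tagged BTK^WT, 15 nM Kinase Tracer 236 and 2 nM Eu anti-His antibody.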

[3] = tested on: OCI-Ly10 human DLBCL cells; test: OCI-Ly10 anti-proliferative activity (Resazurin); assay type: cell-based; conditions: Homo sapiens, OCI-Ly10, 72 h, OCI-Ly10 cells, 72 h compound treatment, Resazurin; read-out: Proliferation Assay OCI-Ly10-20% FBS
Method in brief: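 A separate untreated plate gave the Day 0 reading, measured by Resazurin fluorescence at 590 nm after 5 h. The average Day 0 value was subtracted from each treated well, and results were expressed as percent of DMSO control. IC50 values came from a log[Inhibitor] vs response Variable Slope fit in Graphpad prism.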

T3 sequence (Q06187 whole entry): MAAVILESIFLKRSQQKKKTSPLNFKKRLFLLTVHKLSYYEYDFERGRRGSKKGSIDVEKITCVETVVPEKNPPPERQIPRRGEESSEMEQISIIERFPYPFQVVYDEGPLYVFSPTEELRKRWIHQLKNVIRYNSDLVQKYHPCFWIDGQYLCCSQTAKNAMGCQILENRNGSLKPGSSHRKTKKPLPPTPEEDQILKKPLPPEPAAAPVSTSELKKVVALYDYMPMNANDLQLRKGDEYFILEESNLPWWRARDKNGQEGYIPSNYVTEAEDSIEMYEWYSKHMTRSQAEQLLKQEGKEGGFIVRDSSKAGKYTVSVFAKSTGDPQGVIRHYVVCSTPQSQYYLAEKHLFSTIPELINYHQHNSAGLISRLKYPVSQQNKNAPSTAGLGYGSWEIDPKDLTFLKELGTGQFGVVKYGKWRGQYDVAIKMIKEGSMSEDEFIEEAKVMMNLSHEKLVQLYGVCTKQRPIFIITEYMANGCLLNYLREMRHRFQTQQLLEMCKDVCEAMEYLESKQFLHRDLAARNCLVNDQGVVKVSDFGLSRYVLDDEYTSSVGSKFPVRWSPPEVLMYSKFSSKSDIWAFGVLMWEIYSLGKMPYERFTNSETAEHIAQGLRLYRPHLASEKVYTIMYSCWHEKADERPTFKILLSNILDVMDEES
T1 sequence (P00533 25-1210): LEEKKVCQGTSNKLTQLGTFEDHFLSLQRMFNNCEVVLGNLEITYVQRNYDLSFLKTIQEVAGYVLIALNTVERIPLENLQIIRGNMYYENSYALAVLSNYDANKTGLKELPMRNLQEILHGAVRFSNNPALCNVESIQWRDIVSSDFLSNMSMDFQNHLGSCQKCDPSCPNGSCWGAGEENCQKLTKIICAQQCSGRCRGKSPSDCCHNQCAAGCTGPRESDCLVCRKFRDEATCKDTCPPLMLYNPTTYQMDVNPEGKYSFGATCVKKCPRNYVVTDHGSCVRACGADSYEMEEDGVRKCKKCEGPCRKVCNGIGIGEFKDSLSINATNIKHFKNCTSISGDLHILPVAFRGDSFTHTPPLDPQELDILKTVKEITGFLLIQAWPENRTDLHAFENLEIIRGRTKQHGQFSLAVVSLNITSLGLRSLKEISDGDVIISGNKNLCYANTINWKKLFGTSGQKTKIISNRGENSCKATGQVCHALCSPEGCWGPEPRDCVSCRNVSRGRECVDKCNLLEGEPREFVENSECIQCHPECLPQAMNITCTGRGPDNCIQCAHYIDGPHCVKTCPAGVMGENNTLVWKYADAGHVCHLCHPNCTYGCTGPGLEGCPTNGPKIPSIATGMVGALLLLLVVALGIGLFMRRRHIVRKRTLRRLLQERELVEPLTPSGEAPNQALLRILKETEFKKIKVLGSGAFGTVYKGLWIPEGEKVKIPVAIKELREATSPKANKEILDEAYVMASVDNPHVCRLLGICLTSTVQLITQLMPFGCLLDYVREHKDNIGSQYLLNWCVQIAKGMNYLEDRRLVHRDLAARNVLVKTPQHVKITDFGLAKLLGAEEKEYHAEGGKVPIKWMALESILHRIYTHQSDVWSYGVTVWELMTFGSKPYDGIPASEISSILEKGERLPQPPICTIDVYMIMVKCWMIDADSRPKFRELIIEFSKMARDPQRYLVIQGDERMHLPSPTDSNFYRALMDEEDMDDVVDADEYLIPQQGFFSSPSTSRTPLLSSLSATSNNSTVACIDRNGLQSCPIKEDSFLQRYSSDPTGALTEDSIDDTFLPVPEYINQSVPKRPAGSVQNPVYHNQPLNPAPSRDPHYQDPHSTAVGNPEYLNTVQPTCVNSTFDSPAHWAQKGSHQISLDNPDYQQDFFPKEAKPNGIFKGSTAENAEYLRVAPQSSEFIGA
T2 sequence (Q06187 whole entry C481S): as the sequence (Q06187 whole entry) above, with C481S counted along it

| SMILES | IC50 (Recombinant EGFR) [nM] | IC50 [1] [nM] | IC50 [2] [nM] | IC50 [3] [nM] |
| --- | --- | --- | --- | --- |
| COc1ccccc1C(=O)NCc1ccc(-c2nn(-c3ccc(F)cc3)c(N)c2C(N)=O)cc1 [Example 43, 5-amino-1-(4-fluorophenyl)-3-[4-[[(2-methoxybenzoyl)amino]methyl]phenyl]pyrazole-4-carboxamide] | 100 to 1000 | < 10 | < 10 | 10 to 100 |
| COc1ccccc1C(=O)NCc1ccc(-c2nn(C3CC3)c(N)c2C(N)=O)cc1 [Example 29, 5-Amino-1-cyclopropyl-3-[4-[[(2-methoxybenzoyl)amino]methyl]phenyl]pyrazole-4-carboxamide] | 1000 to 10000 | < 10 | < 10 | 100 to 1000 |
| COc1ccccc1C(=O)NCc1ccc(-c2nn(CC3(C)COC3)c(N)c2C(N)=O)cc1 [Example 8, 5-amino-3-[4-[[(2-methoxybenzoyl)amino]methyl]phenyl]-1-[(3-methyloxetan-3-yl)methyl]pyrazole-4-carboxamide] | > 10000 | 10 to 100 | 100 to 1000 | 100 to 1000 |
| COc1ccccc1C(=O)NCc1ccc(-c2nn(C3CCCC3)c(N)c2C(N)=O)cc1 [Example 1, 5-amino-1-cyclopentyl-3-[4-[[(2-methoxybenzoyl)amino]methyl]phenyl]pyrazole-4-carboxamide] | 100 to 1000 | < 10 | < 10 | < 10 |
| COc1ccccc1C(=O)NCc1ccc(-c2nn(C(C)C(F)(F)F)c(N)c2C(N)=O)cc1 (centres unmarked) [Example 121, 5-amino-3-[4-[[(2-methoxybenzoyl)amino]methyl]phenyl]-1-(2,2,2-trifluoro-1-methyl-ethyl)pyrazole-4-carboxamide] | 100 to 1000 | < 10 | < 10 | 10 to 100 |
| COc1ccccc1C(=O)NCc1ccc(-c2nn(C3Cc4ccccc4C3)c(N)c2C(N)=O)cc1 [Example 52, 5-amino-1-indan-2-yl-3-[4-[[(2-methoxybenzoyl)amino]methyl]phenyl]pyrazole-4-carboxamide] | 100 to 1000 | < 10 | < 10 | 10 to 100 |
| COc1ccccc1C(=O)NCc1ccc(-c2nn(-c3ccccn3)c(N)c2C(N)=O)cc1 [Example 53, 5-amino-3-[4-[[(2-methoxybenzoyl)amino]methyl]phenyl]-1-(2-pyridyl)pyrazole-4-carboxamide] | 100 to 1000 | < 10 | < 10 | 10 to 100 |
| CNc1c(C(N)=O)c(-c2ccc(CNC(=O)c3ccccc3OC)cc2)nn1-c1cccnc1 [Example 110, 3-[4-[[(2-methoxybenzoyl)amino]methyl]phenyl]-5-(methylamino)-1-(3-pyridyl)pyrazole-4-carboxamide] | 1000 to 10000 | 10 to 100 | 10 to 100 | 1000 to 10000 |

The next lines start with the values.

| IC50 (Recombinant EGFR) [nM] | IC50 [1] [nM] | IC50 [2] [nM] | IC50 [3] [nM] | SMILES |
| --- | --- | --- | --- | --- |
| > 10000 | < 10 | 10 to 100 | 100 to 1000 | COc1ccccc1C(=O)NCc1cc(F)c(-c2nn(C3CCOCC3)c(N)c2C(N)=O)cc1F [Example 148, 5-amino-3-[2,5-difluoro-4-[[(2-methoxybenzoyl)amino]methyl]phenyl]-1-tetrahydropyran-4-yl-pyrazole-4-carboxamide] |
| 1000 to 10000 | < 10 | < 10 | 100 to 1000 | COc1ccc(F)cc1C(=O)NCc1ccc(-c2nn([C@@H]3CCCOC3)c(N)c2C(N)=O)cc1 [Example 183, 5-amino-3-[4-[[(5-fluoro-2-methoxy-benzoyl)amino]methyl]phenyl]-1-[(3R)-tetrahydropyran-3-yl]pyrazole-4-carboxamide] |
| 1000 to 10000 | < 10 | < 10 | 10 to 100 | COc1ccc(F)cc1C(=O)NCc1cc(F)c(-c2nn(C3CCCC3)c(N)c2C(N)=O)cc1F [Example 137, 5-amino-1-cyclopentyl-3-[2,5-difluoro-4-[[(5-fluoro-2-methoxy-benzoyl)amino]methyl]phenyl]pyrazole-4-carboxamide] |
